Article PMC5472064 (Organic & biomolecular chemistry, 2017)
Read-outs that look alike come from different tables or passages of the source.

Molecular target: p97 ATPase WT (Homo sapiens, UniProt P55072)
Assay: ADPGlo biochemical assay of p97 ATPase inhibition
Details: for effect of structural change on activity/potency (in words): p97 inhibition, versus indole NH / amide analogs

p97 ATPase WT, sequence (P55072 whole entry): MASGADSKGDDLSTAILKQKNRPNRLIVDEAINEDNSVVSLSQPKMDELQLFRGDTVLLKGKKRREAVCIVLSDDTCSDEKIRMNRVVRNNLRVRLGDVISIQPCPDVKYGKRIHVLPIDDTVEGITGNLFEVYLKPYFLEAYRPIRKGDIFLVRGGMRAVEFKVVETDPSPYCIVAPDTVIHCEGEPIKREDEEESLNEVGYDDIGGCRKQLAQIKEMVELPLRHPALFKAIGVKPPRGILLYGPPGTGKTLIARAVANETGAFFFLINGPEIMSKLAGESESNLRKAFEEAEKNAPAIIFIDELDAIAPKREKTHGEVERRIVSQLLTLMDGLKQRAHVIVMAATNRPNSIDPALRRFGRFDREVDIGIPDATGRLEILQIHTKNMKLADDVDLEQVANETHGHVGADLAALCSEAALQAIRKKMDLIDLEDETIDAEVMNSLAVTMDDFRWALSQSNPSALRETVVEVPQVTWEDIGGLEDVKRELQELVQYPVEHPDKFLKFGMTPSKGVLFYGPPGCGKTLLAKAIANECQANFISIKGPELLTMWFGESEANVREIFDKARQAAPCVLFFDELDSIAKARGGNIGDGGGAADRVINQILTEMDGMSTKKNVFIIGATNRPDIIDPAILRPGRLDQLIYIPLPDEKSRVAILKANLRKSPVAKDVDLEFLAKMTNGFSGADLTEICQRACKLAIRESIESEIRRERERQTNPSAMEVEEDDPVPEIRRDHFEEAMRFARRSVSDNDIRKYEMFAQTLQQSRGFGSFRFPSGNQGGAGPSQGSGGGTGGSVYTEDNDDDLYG

| Structure (SMILES) | IC50 | further results |
| --- | --- | --- |
| CC(C)N1CCN(CCNC2CCN(c3cccc(-c4cc5cc(F)ccc5[nH]4)c3)CC2)CC1 [UPCDC30245] | – | IC50 (read-out: ADPGlo IC50, 20 nM p97 ATPase WT, 100 μM ATP, repeated multiple times): 55 nM |
| CC(C)N1CCN(CCNC2CCN(c3cccc(-c4nc5ccccc5[nH]4)c3)CC2)CC1 [UPCDC30250, 1-(3-(1H-Benzo[d]imidazol-2-yl)phenyl)-N-(2-(4-isopropylpiperazin-1-yl)ethyl)piperidin-4-amine] | 38500 nM | reduction of binding affinity (benzimidazole versus indole): > 2 orders of magnitude |
| CC(C)N1CCN(CCNC2CCN(c3cccc(-c4cc5cc(C(N)=O)ccc5[nH]4)c3)CC2)CC1 [UPCDC30310, 2-(3-(4-((2-(4-Isopropylpiperazin-1-yl)ethyl)amino)piperidin-1-yl)phenyl)-1H-indole-5-carboxamide] | 100 nM | – |
| COC(=O)c1ccc2[nH]c(-c3cccc(N4CCC(NCCN5CCN(C(C)C)CC5)CC4)c3)cc2c1 [UPCDC30341, Methyl 2-(3-(4-((2-(4-isopropylpiperazin-1-yl)ethyl)amino)piperidin-1-yl)phenyl)-1H-indole-5-carboxylate] | 130 nM | – |
| CC(C)N1CCN(CCNC2CCN(c3cccc(-c4cc5cnccc5[nH]4)c3)CC2)CC1 [UPCDC30345, 1-(3-(1H-Pyrrolo[3,2-c]pyridin-2-yl)phenyl)-N-(2-(4-isopropylpiperazin-1-yl)ethyl)piperidin-4-amine] | 4000 nM | – |
| CC(C)N1CCN(CCNC2CCN(c3cccc(-c4cc5cc(C(=O)N(C)C)ccc5[nH]4)c3)CC2)CC1 [UPCDC30368, 2-(3-(4-((2-(4-Isopropylpiperazin-1-yl)ethyl)amino)piperidin-1-yl)phenyl)-N,N-dimethyl-1H-indole-5-carboxamide] | – | effect of structural change on activity/potency (in words): near loss of all potency |
| CC(C)N1CCN(CCNC2CCN(c3cccc(-c4cc5cc(F)cnc5[nH]4)c3)CC2)CC1 [UPCDC30381, 1-(3-(5-Fluoro-1H-pyrrolo[2,3-b]pyridin-2-yl)phenyl)-N-(2-(4-isopropylpiperazin-1-yl)ethyl)piperidin-4-amine] | 4740 nM | – |

The next lines start with results.

| IC50 | Structure (SMILES) | further results |
| --- | --- | --- |
| > 50000 nM | CC(C)N1CCN(CCNC2CCN(c3cccc(-c4cc5ccccc5n4C)c3)CC2)CC1 [UPCDC30201, N-(2-(4-Isopropylpiperazin-1-yl)ethyl)-1-(3-(1-methyl-1H-indol-2-yl)phenyl)piperidin-4-amine] | effect of structural change on activity/potency (in words): ablates |
| 390 nM | CC(C)N1CCN(CCNC2CCN(c3ccc4c(c3)-c3[nH]c5ccccc5c3CC4)CC2)CC1 [UPCDC30206, 1-(6,11-Dihydro-5H-benzo[a]carbazol-2-yl)-N-(2-(4-isopropylpiperazin-1-yl)ethyl)piperidin-4-amine] | – |
| 5200 nM | CC(C)N1CCN(CCNC2CCN(c3cccc(-c4ccc5ccccc5c4)c3)CC2)CC1 [UPCDC30222, N-(2-(4-Isopropylpiperazin-1-yl)ethyl)-1-(3-(naphthalen-2-yl)phenyl)piperidin-4-amine] | effect of structural change on activity/potency (in words): greatly diminishes |
| 190 nM | CC(C)N1CCN(CCNC2CCN(c3cccc(-c4cc5cc(Cl)ccc5[nH]4)c3)CC2)CC1 [UPCDC30317, 1-(3-(5-Chloro-1H-indol-2-yl)phenyl)-N-(2-(4-isopropylpiperazin-1-yl)ethyl)piperidin-4-amine] | – |
| 50 nM | Cc1ccc(N2CCC(NCCN3CCN(C(C)C)CC3)CC2)cc1-c1cc2cc(F)ccc2[nH]1 [UPCDC30346, 1-(3-(5-Fluoro-1H-indol-2-yl)-4-methylphenyl)-N-(2-(4-isopropylpiperazin-1-yl)ethyl)piperidin-4-amine] | – |
| 87 nM | Cc1ccc(N2CCC(NCCN3CCN(C(C)C)CC3)CC2)cc1-c1cc2cc(C#N)ccc2[nH]1 [UPCDC30361, 2-(5-(4-((2-(4-Isopropylpiperazin-1-yl)ethyl)amino)piperidin-1-yl)-2-methylphenyl)-1H-indole-5-carbonitrile] | – |
| 450 nM | CNC(=O)c1ccc2[nH]c(-c3cccc(N4CCC(NCCN5CCN(C(C)C)CC5)CC4)c3)cc2c1 [UPCDC30367, 2-(3-(4-((2-(4-Isopropylpiperazin-1-yl)ethyl)amino)piperidin-1-yl)phenyl)-N-methyl-1H-indole-5-carboxamide] | – |
